HELM strings list units from the 5' end as sugar, base in round brackets, then linkage (d deoxyribose, r ribose, m 2'-O-methyl, p phosphodiester). Strings are as the collection lists them; they lack the last nucleoside at the 3' end of the tested compound. [moe] = 2'-O-(2-methoxyethyl) (MOE); [sp] = phosphorothioate linkage; [m5C] = 5-methylcytosine
What follows are substances tested against UBE3A-ATS (assay: mouse, dose not given). Conditions: ASO.

| Substance | 3 h FOB score [score 0-7] |
| --- | --- |
| RNA1{[moe](G)[sp].[moe]([m5C])p.[moe](T)p.[moe](T)p.[moe](A)p.d(G)[sp].d(G)[sp].d([m5C])[sp].d(A)[sp].d(A)[sp].d(T)[sp].d(G)[sp].d(G)[sp].d(A)[sp].d([m5C])[sp].[moe](T)p.[moe](T)p.[moe](A)[sp].[moe](G)}$$$$ (last 3' nucleoside missing) | 5.5 |
| RNA1{[moe](G)[sp].[moe]([m5C])p.[moe](T)p.[moe](T)p.[moe](A)p.d(T)[sp].d(G)[sp].d(T)[sp].d(A)[sp].d(G)[sp].d([m5C])[sp].d(T)[sp].d([m5C])[sp].d(A)[sp].d(G)[sp].[moe]([m5C])p.[moe](T)p.[moe]([m5C])[sp].[moe](A)}$$$$ (last 3' nucleoside missing) | 1 |
| RNA1{[moe](G)[sp].[moe]([m5C])p.[moe](T)p.[moe](T)p.[moe](T)p.d(A)[sp].d(G)[sp].d(T)[sp].d(A)[sp].d(T)[sp].d(G)[sp].d(T)[sp].d([m5C])[sp].d(G)[sp].d(A)[sp].[moe](G)p.[moe](A)p.[moe](A)[sp].[moe]([m5C])}$$$$ (last 3' nucleoside missing) | 6 |
| RNA1{[moe](G)[sp].[moe]([m5C])p.[moe](T)p.[moe](T)p.[moe](T)p.d(A)[sp].d(T)[sp].d(A)[sp].d([m5C])[sp].d(T)[sp].d(T)[sp].d(T)[sp].d(A)[sp].d([m5C])[sp].d([m5C])[sp].[moe]([m5C])p.[moe](A)p.[moe](A)[sp].[moe]([m5C])}$$$$ (last 3' nucleoside missing) | 1 |
| RNA1{[moe](G)[sp].[moe]([m5C])p.[moe](T)p.[moe](T)p.[moe](T)p.d(T)[sp].d([m5C])[sp].d(A)[sp].d(G)[sp].d(T)[sp].d([m5C])[sp].d(A)[sp].d(G)[sp].d(G)[sp].d(T)[sp].[moe](A)p.[moe]([m5C])p.[moe](A)[sp].[moe](G)}$$$$ (last 3' nucleoside missing) | 6 |
| RNA1{[moe](G)[sp].[moe]([m5C])p.[moe](T)p.[moe](T)p.[moe]([m5C])p.[moe](A)p.d([m5C])[sp].d([m5C])[sp].d(A)[sp].d(T)[sp].d(T)[sp].d(T)[sp].d(T)[sp].d(G)[sp].d(A)[sp].d([m5C])[sp].[moe]([m5C])p.[moe](T)[sp].[moe](T)}$$$$ (last 3' nucleoside missing) | 1 |
| RNA1{[moe](G)[sp].[moe]([m5C])p.[moe](T)p.[moe](T)p.[moe]([m5C])p.d(A)[sp].d([m5C])[sp].d([m5C])[sp].d(A)[sp].d(T)[sp].d(T)[sp].d(T)[sp].d(T)[sp].d(G)[sp].d(A)[sp].[moe]([m5C])p.[moe]([m5C])p.[moe](T)[sp].[moe](T)}$$$$ (last 3' nucleoside missing) | 2.2 |
| RNA1{[moe](G)[sp].[moe]([m5C])p.[moe](T)p.[moe](T)p.d([m5C])[sp].d(A)[sp].d([m5C])[sp].d([m5C])[sp].d(A)[sp].d(T)[sp].d(T)[sp].d(T)[sp].d(T)[sp].d(G)[sp].[moe](A)p.[moe]([m5C])p.[moe]([m5C])p.[moe](T)[sp].[moe](T)}$$$$ (last 3' nucleoside missing) | 0 |
| RNA1{[moe](G)[sp].[moe]([m5C])p.[moe](T)p.[moe]([m5C])[sp].d(A)[sp].d(G)[sp].d(T)[sp].d(T)[sp].d(A)[sp].d(G)[sp].d(G)[sp].d(T)[sp].[moe](T)p.[moe](A)p.[moe](G)p.[moe](T)[sp].[moe](G)}$$$$ (last 3' nucleoside missing) | 4 |
| RNA1{[moe](G)[sp].[moe]([m5C])p.[moe](T)p.[moe]([m5C])p.[moe](A)[sp].d(G)[sp].d(T)[sp].d(T)[sp].d(A)[sp].d(G)[sp].d(G)[sp].d(T)[sp].d(T)[sp].[moe](A)p.[moe](G)p.[moe](T)[sp].[moe](G)}$$$$ (last 3' nucleoside missing) | 2.3 |
| RNA1{[moe](G)[sp].[moe]([m5C])p.[moe](T)p.[moe]([m5C])p.[moe](A)p.[moe](G)[sp].d(T)[sp].d(T)[sp].d(A)[sp].d(G)[sp].d(G)[sp].d(T)[sp].d(T)[sp].d(A)[sp].[moe](G)p.[moe](T)[sp].[moe](G)}$$$$ (last 3' nucleoside missing) | 5 |
| RNA1{[moe](G)[sp].[moe]([m5C])p.[moe](T)p.[moe]([m5C])p.[moe](A)p.[moe](G)p.d(T)[sp].d(T)[sp].d(A)[sp].d(G)[sp].d(G)[sp].d(T)[sp].d(T)[sp].d(A)[sp].d(G)[sp].d(T)[sp].[moe](G)p.[moe]([m5C])[sp].[moe](A)}$$$$ (last 3' nucleoside missing) | 4 |
| RNA1{[moe](G)[sp].[moe]([m5C])p.[moe](T)p.[moe]([m5C])p.[moe](A)p.d(G)[sp].d(T)[sp].d(T)[sp].d(A)[sp].d(G)[sp].d(G)[sp].d(T)[sp].d(T)[sp].d(A)[sp].d(G)[sp].[moe](T)p.[moe](G)p.[moe]([m5C])[sp].[moe](A)}$$$$ (last 3' nucleoside missing) | 3.8 |
| RNA1{[moe](G)[sp].[moe]([m5C])p.[moe](T)p.[moe]([m5C])p.[moe](A)p.d(T)[sp].d([m5C])[sp].d(A)[sp].d([m5C])[sp].d(A)[sp].d(A)[sp].d([m5C])[sp].d(T)[sp].d(G)[sp].d(G)[sp].[moe](G)p.[moe](T)p.[moe](G)[sp].[moe](G)}$$$$ (last 3' nucleoside missing) | 1 |
| RNA1{[moe](G)[sp].[moe]([m5C])p.[moe](T)p.[moe]([m5C])p.d(A)[sp].d(G)[sp].d(T)[sp].d(T)[sp].d(A)[sp].d(G)[sp].d(G)[sp].d(T)[sp].d(T)[sp].d(A)[sp].[moe](G)p.[moe](T)p.[moe](G)p.[moe]([m5C])[sp].[moe](A)}$$$$ (last 3' nucleoside missing) | 4 |
| RNA1{[moe](G)[sp].[moe]([m5C])p.[moe]([m5C])p.[moe](A)[sp].d(G)[sp].d(G)[sp].d(T)[sp].d(G)[sp].d(T)[sp].d([m5C])[sp].d(T)[sp].d(T)[sp].[moe](A)p.[moe](T)p.[moe](A)p.[moe](T)[sp].[moe]([m5C])}$$$$ (last 3' nucleoside missing) | 1 |
| RNA1{[moe](G)[sp].[moe]([m5C])p.[moe]([m5C])p.[moe](A)p.[moe](G)[sp].d(G)[sp].d(T)[sp].d(G)[sp].d(T)[sp].d([m5C])[sp].d(T)[sp].d(T)[sp].d(A)[sp].[moe](T)p.[moe](A)p.[moe](T)[sp].[moe]([m5C])}$$$$ (last 3' nucleoside missing) | 0 |
| RNA1{[moe](G)[sp].[moe]([m5C])p.[moe]([m5C])p.[moe](A)p.[moe](G)p.[moe](G)[sp].d(T)[sp].d(G)[sp].d(T)[sp].d([m5C])[sp].d(T)[sp].d(T)[sp].d(A)[sp].d(T)[sp].[moe](A)p.[moe](T)[sp].[moe]([m5C])}$$$$ (last 3' nucleoside missing) | 0 |
| RNA1{[moe](G)[sp].[moe]([m5C])p.[moe]([m5C])p.[moe](A)p.[moe](G)p.[moe](G)p.d(T)[sp].d(G)[sp].d(T)[sp].d([m5C])[sp].d(T)[sp].d(T)[sp].d(A)[sp].d(T)[sp].d(A)[sp].d(T)[sp].[moe]([m5C])p.[moe](T)[sp].[moe](A)}$$$$ (last 3' nucleoside missing) | 0 |
| RNA1{[moe](G)[sp].[moe]([m5C])p.[moe]([m5C])p.[moe](A)p.[moe](G)p.d(G)[sp].d(T)[sp].d(G)[sp].d(T)[sp].d([m5C])[sp].d(T)[sp].d(T)[sp].d(A)[sp].d(T)[sp].d(A)[sp].[moe](T)p.[moe]([m5C])p.[moe](T)[sp].[moe](A)}$$$$ (last 3' nucleoside missing) | 0 |
| RNA1{[moe](G)[sp].[moe]([m5C])p.[moe]([m5C])p.[moe](A)p.d(G)[sp].d(G)[sp].d(T)[sp].d(G)[sp].d(T)[sp].d([m5C])[sp].d(T)[sp].d(T)[sp].d(A)[sp].d(T)[sp].[moe](A)p.[moe](T)p.[moe]([m5C])p.[moe](T)[sp].[moe](A)}$$$$ (last 3' nucleoside missing) | 1 |
| RNA1{[moe](G)[sp].[moe]([m5C])p.[moe]([m5C])p.[moe](T)p.[moe](G)p.d([m5C])[sp].d(T)[sp].d([m5C])[sp].d(A)[sp].d(A)[sp].d(A)[sp].d(T)[sp].d([m5C])[sp].d(T)[sp].d(G)[sp].[moe]([m5C])p.[moe](G)p.[moe](A)[sp].[moe](A)}$$$$ (last 3' nucleoside missing) | 2 |
| RNA1{[moe](G)[sp].[moe]([m5C])p.[moe]([m5C])p.[moe](T)p.[moe](T)p.d(T)[sp].d([m5C])[sp].d(T)[sp].d(A)[sp].d(T)[sp].d(T)[sp].d(T)[sp].d([m5C])[sp].d(A)[sp].d(G)[sp].[moe](A)p.[moe]([m5C])p.[moe]([m5C])[sp].[moe](G)}$$$$ (last 3' nucleoside missing) | 1 |
| RNA1{[moe](T)[sp].[moe](A)p.[moe](A)p.[moe](A)p.[moe](A)p.d(T)[sp].d([m5C])[sp].d([m5C])[sp].d(A)[sp].d(T)[sp].d(T)[sp].d(T)[sp].d(G)[sp].d(T)[sp].d([m5C])[sp].[moe]([m5C])p.[moe](A)p.[moe](G)[sp].[moe](T)}$$$$ (last 3' nucleoside missing) | 3.3 |
| RNA1{[moe](T)[sp].[moe](A)p.[moe](A)p.[moe](A)p.[moe](A)p.d([m5C])[sp].d(G)[sp].d([m5C])[sp].d(A)[sp].d(A)[sp].d(T)[sp].d(G)[sp].d(T)[sp].d(A)[sp].d(T)[sp].[moe]([m5C])p.[moe](A)p.[moe](G)[sp].[moe](G)}$$$$ (last 3' nucleoside missing) | 1 |
| RNA1{[moe](T)[sp].[moe](A)p.[moe](A)p.[moe](G)p.[moe](G)p.d(T)[sp].d([m5C])[sp].d(T)[sp].d(G)[sp].d(T)[sp].d(T)[sp].d(A)[sp].d(T)[sp].d(T)[sp].d([m5C])[sp].[moe](T)p.[moe]([m5C])p.[moe]([m5C])[sp].[moe]([m5C])}$$$$ (last 3' nucleoside missing) | 0.8 |
| RNA1{[moe](T)[sp].[moe](A)p.[moe](A)p.[moe](G)p.[moe](T)p.d(A)[sp].d(T)[sp].d(A)[sp].d(G)[sp].d(A)[sp].d(T)[sp].d(G)[sp].d([m5C])[sp].d([m5C])[sp].d(T)[sp].[moe]([m5C])p.[moe](T)p.[moe]([m5C])[sp].[moe]([m5C])}$$$$ (last 3' nucleoside missing) | 3.7 |

Source: the OligoGym collection
